{"source": "patent US5594144A", "about": "“Tropolone derivatives and pharmaceutical composition thereof for preventing and treating ischemic diseases” (The Upjohn Company, priority 1990, dated 1997)", "key": {"[1]": {"test_system": "Brain microsomal fractions", "assay": "in vitro Anti-lipid peroxidation effect (TBAR production, Fe3+-ADP/NADPH)", "assay_type": "biochemical, rat (SD strain, male)", "procedure,_shortened": "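Male SD rat brain microsomes (0.2 mg protein) incubated 15 min at 37 °C with Fe3+ (0.1 mM)-ADP (0.5 mM) and 0.2 mM NADPH in HEPES/KCl pH 7.4, with or without compound. TBAR measured at 535 nm after TCA-TBA-HCl boiling; inhibition of TBAR production reported.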"}, "[2]": {"test_system": "pig right coronary artery", "assay": "in vitro Ca-antagonism (high K+ induced 45Ca-influx)", "assay_type": "cell-based", "details": "Sus scrofa, K+ 75 mM", "procedure,_shortened": "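Pig right coronary artery strips depolarized with 75 mM K^+ for 30 minutes in presence of compound at 10^-7, 10^-6, 10^-5 M. Extracellular ^45Ca chelated with EGTA and washed off; intracellular ^45Ca counted by scintillation after lysis at 100° C, giving % inhibition of K^+-induced uptake.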"}, "[3]": {"test_system": "KCN-induced respiratory arrest", "assay": "in vivo Anti-anoxia effect (KCN lethal dose)", "set-up": "species or system mouse (ICR strain, male)", "details": "Mus musculus, po; * methansulfonate; KCN 3.0 mg/kg", "method": "7. in vivo Anti-anoxia effect\nA group (5 mice) of ICR strain male mice (about 8-week-old) were used. One or two hours after the test compounds were orally administered, a lethal dose (3.0 mg/kg) of KCN was administered into tail vein. A period of time to respiratory arrest and a survival rate were measured. The test compound which provided at least 50% of active example was determined as \"active\"."}, "[4]": {"test_system": "Mouse Cerebral Ischemia/Reperfusion", "assay": "in vivo Behavior test (Mouse Cerebral Ischemia/Reperfusion Test)", "set-up": "species or system mouse (ICR strain, male)", "details": "ip", "method": "Bilateral common carotid arteries of both sides of ICR strain male mice (about 8 weeks old) were occluded for 5 minutes while lightly anesthetized, then blood was reperfuged. The test compounds were intraperitoneally administered 10 minutes before occlusion and within 3 hours after reperfusion. Since a day after reperfusion, behavior disorder was evaluated by spontaneous motor activity of exploratory behavior, traction test and passive avoidance test. That is, spontaneous motor activity was evaluated as follows. Motor activity was measured by tilting cage method for 30 minutes since immediately after a mouse was placed in a measurement cage. If the motor activity was at least more than (average of spontaneous motion of the group received solvent) +2×SD, the compound was evaluated as \"active.\" In traction test, both fore limbs of the mouse were placed on the horizontally stretched wire. If the mouse put its hind limb within 2 seconds, the compound was estimated as \"active.\". In passive avoidance test, a step-through type apparatus was used, and as acquisition trial of blood reperfusion, electrical shock (about 0.5 mA, 3 seconds) was given to the mice as soon as the whole body of mice entered the black room and on the next day test trial was carried out. The mouse which stayed in a light room for at least 300 seconds was estimated as an active example. In all tests, the test compound which provided at least 50% of active animals was determined as \"active.\" The results are shown in Table 5."}, "cerebral blood flow": {"test_system": "cerebral blood flow", "assay": "Normal cerebral flow stream test", "assay_type": "in vivo", "details": "Rattus norvegicus, iv; urethane anesthetized; laser Doppler; read-out: active dose (increase in cerebral blood flow)", "method": "6. Normal cerebral flow stream test\nExperiment was carried out using rats anesthetized with urethane. After a cannulas for blood pressure monitoring and that for drug administration were inserted into femoral artery and vein, respectively. Temporal bone was cut away on a brain stereotaxis apparatus and a probe for measurement of cerebral blood flow was placed on dura mater. The cerebral blood flow was measured using a laser Dopplar blood flow meter. Firstly, a solvent of the test compound was administered intravenously and then three doses of the compound were administered in order of dose every fifteen-minute intervals. When an average of increase in cerebral blood flow due to the test compound minus 2×SE was larger than that of change in cerebral blood flow due to the solvent, the dose was estimated as \"active\". The compound (1B) was active in the dose of not less than 3 mg/kg i.v."}, "porcine coronary artery": {"test_system": "porcine coronary artery", "assay": "in vitro Coronary vasodilation effect (PGF2α-contracted strip)", "assay_type": "cell-based", "details": "Sus scrofa; 25% of papaverine-induced relaxation; read-out: Coronary Vasodilation (ED25 μM)", "method": "3. in vitro Coronary vasodilation effect\nThe right portion of a porcine coronary artery was isolated, and cut into 3 mm wide strip which was suspended in a organ bath filled with 20 ml of Krebs--Henseleit solution (37° C.). During the experiment the bath solution was aerated with 95% O2 +5% Co2. The change in tension was measured using an isometric transducer. After load tension was stabilized, the preparation was contracted with PGF2α (10^-6 -[…]). After the contract level had stabilized the test compound was cumulatively applied from 10^-8 to 10^-5 M. Papaverine (10^-4 M) was used to obtain maximal relaxation at the end of the experiment. The result was expressed as the percentage of papverine-induced relaxation, and the concentration of the test compound which gave 25% relaxation of papaverine-induced relaxation was defined as ED25. The compound with low ED25 value has great coronary vasodilation effect."}, "ventricular arrhythmia": {"test_system": "ventricular arrhythmia", "assay": "in vivo Ischemic heart/reperfusion test", "details": "Rattus norvegicus, iv; read-out: Minimal Effective Dose (mg/kg, i.v.)", "method": "4. in vivo Ischemic heart/reperfusion test\nExperiment was carried out using rats anesthetized with pentobarbital under artificial respiration. After the forth rib was excised, heart was exposed by thoracotomy, and the thread was placed under the left coronary artery at it origin. Then, the heart was returned and a thread was passed in a tube. Compounds were applied through tail vein. After 10 minutes, the thread in the tube was pulled to occlude coronary artery. Five minutes after occlusion, the thread was loosened again for reperfusion. Then, ventricular arrhythmia was recorded on electrocardiogram (lead II), by sticking needle electrodes into a right fore-limb and a left hind-limb. Duration time of ventricular tachycardia and occurrence of ventricular fibrillation caused after reperfusion were compared between a group receiving the test compounds and a similarly treated vehicle group. If either of two parameters of the group that received the test compound became less than half of that of the group that received the vehicle, the test compound was estimated as \"active\"."}}, "data": [{"molecule": "CC(C)c1ccc(CN2CCN(C(c3ccc(F)cc3)c3ccc(F)cc3)CC2)c(=O)c(NCCN(C)C)c1", "note": "[Compound 1C, 7-[4-(4,4'-difluorobenzhydryl)piperazino-1-methyl]-2-(N-2-dimethylaminoethylamino)-4-isopropyl-2,4,6-cycloheptatrien-1-one]", "values": [{"measurement": "Anti-Lipid Peroxidation (% inhibition) 10 μM", "setting": "[1]", "value": 59.4, "unit": "%"}, {"measurement": "Anti-Lipid Peroxidation (% inhibition) 50 μM", "setting": "[1]", "value": 95.3, "unit": "%"}, {"measurement": "inhibition at 10 µM", "setting": "[2]", "value": 81, "unit": "%"}, {"measurement": "minimal effective dose", "setting": "[3]", "value": 100, "unit": "mg/kg"}]}, {"molecule": "COc1cc(C(C)C)ccc(C2Sc3ccccc3N2CCc2ccccc2)c1=O", "note": "(centres unmarked) [Compound 1B, 2-(2'-oxo-3'-methoxy-5'-isopropyl-3',5',7'-cycloheptatrienyl)-3-phenethylbenzothiazoline]", "values": [{"measurement": "Anti-Lipid Peroxidation (% inhibition) 10 μM", "setting": "[1]", "value": 91.8, "unit": "%"}, {"measurement": "Anti-Lipid Peroxidation (% inhibition) 50 μM", "setting": "[1]", "value": 93.1, "unit": "%"}, {"measurement": "minimal effective dose", "setting": "[4]", "value": 0.1, "unit": "mg/kg"}, {"measurement": "minimal effective dose", "setting": "cerebral blood flow", "value": "≥ 3", "unit": "mg/kg"}]}, {"molecule": "COc1cc(C(C)C)ccc(CN2CCN(C(c3ccc(F)cc3)c3ccc(F)cc3)CC2)c1=O", "note": "[Compound 7A, 7-[4-(4,4'-difluorobenzhydryl)piperazino-1-methyl]-4-isopropyl-2-methoxy-2,4,6-cycloheptatrien-1-one]", "values": [{"measurement": "Anti-Lipid Peroxidation (% inhibition) 10 μM", "setting": "[1]", "value": 27.2, "unit": "%"}, {"measurement": "Anti-Lipid Peroxidation (% inhibition) 50 μM", "setting": "[1]", "value": 59.2, "unit": "%"}, {"measurement": "inhibition at 10 µM", "setting": "[2]", "value": 100, "unit": "%"}, {"measurement": "EC25", "setting": "porcine coronary artery", "value": 1.9, "unit": "µM"}, {"measurement": "minimal effective dose", "setting": "ventricular arrhythmia", "value": "< 5", "unit": "mg/kg"}, {"measurement": "minimal effective dose", "setting": "[4]; route cell empty (method: intraperitoneally)", "value": "< 10", "unit": "mg/kg"}]}]}
